According to US6903219B2 (dated 2005):

First: C=C(C)CO[C@H]1[C@H](C)OC(=O)[C@@H](NC(=O)c2nccc(OC)c2OCc2ccccc2)COC(=O)[C@@H]1Cc1ccccc1
Second: C=C(C)CO[C@H]1[C@H](C)OC(=O)[C@@H](NC(=O)c2nccc(OC)c2OCOC(C)=O)COC(=O)[C@@H]1Cc1ccccc1
The melting point of the first is lower: 50 to 52 °C for the first, 102 to 104 °C for the second.

Compared with CCCO[C@H]1[C@H](C)OC(=O)[C@@H](NC(=O)c2nccc(OC)c2O)COC(=O)[C@@H]1Cc1ccccc1, COc1ccnc(C(=O)N[C@H]2COC(=O)[C@H](Cc3ccccc3)[C@@H](OCC(C)C)[C@H](C)OC2=O)c1O is higher in melting point: 150 to 152 °C for the first, 168 to 169 °C for the second.
